Measurements: PMC8840040, “Pharmacokinetic Characterization of the DDAH1 Inhibitors ZST316 and ZST152 in Mice Using a HPLC-MS/MS Method” (Molecules, 2022)

Assay: Urinary metabolites in 24 h urine by HPLC-MS/MS
Type: in vivo, FVB mice
Description: The assessment of the urinary elimination after oral and intravenous administration, in the urine fraction collected 24 h post dose, is reported in Table 6. […] To further investigate this issue, we searched for the presence of urinary metabolites in the 24 h urine samples in one mouse per treatment group. We identified at least eight molecules most likely originating from the parent compounds (Table 7; see Supplementary Figure S1 for the hypothesized structures).
Mice were treated with ZST316 and ZST152 using a dose of 60 mg/Kg (oral gavage) and 30 mg/Kg (intravenous bolus). For pharmacokinetic sampling, blood was collected at 15 and 30 min, and 1, 3, 8, and 24 h post dose. Three mice were analyzed per each time point. After the animals were anesthetized with isoflurane, the blood was drained from the retro-orbital plexus into heparinized tubes, and then centrifuged for 10 min at 4000× g at 4 °C to separate plasma. A 24-h urine fraction was collected in three mice for each drug and route of administration. Plasma and urine samples were stored at −20 °C until analysis by HPLC-MS/MS.
[…] chromatography was performed using a series 200 HPLC system (Perkin Elmer, Waltham, MA, USA) under gradient conditions with separation on a HILIC column, 3 µm, 100 A, 2.1 × 150 mm (Waters, Milford, MA, USA), coupled with a 3 µm, 3.9 × 5.0 mm guard column of the same material at the flow rate of 0.2 mL/min. Gradient features: 10% mobile phase (MP) A (NH4HCO2 10 mM, 10% CH3CN, 0.1% HCOOH) and 90% MP B (CH3CN, 0.1% HCOOH) as the initial constant condition; then to 90% MP A in 6 min and the constant condition for 1.5 min. Return to the start condition in 0.5 min and conditioning for 5.5 min. Total run time: 13.5 min. Mass spectrometric detection was performed using an API 4000 triple quadrupole mass spectrometer (SCIEX, Framingham, MA, USA) supplied with a Turbo Ion Spray source set at 350 °C and −4200 V, analyzing biological samples with electrospray ionization (ESI) operating in negative ion mode. Purified air was used as nebulizer gas (Gas 1) and heater gas (Gas 2) and N2 was used as curtain gas and collision activated dissociation gas. They were set to 40, 50, 20, and 4 instrument units (psi), respectively. The declustering potential (DP) was set at −119 V and the collision exit potential (CXP) at –10 V. All parameters of the source were defined by direct infusion of ZST316 and ZST152 1 µg/mL in mobile phase B. The final quantification was carried out in Selected Reaction Monitoring (SRM) with the following transitions: m/z 307.9 → 208.0 (collision energy of −29.5 eV) for ZST316 and m/z 271.9 → 170.9 (collision energy −24.7 eV) for ZST152 (Figure 2 and Figure 3). Data were processed with the software package Analyst 1.6.2 (AB SCIEX).

[1] = after intravenous ZST152, total dose 1.410 mg, mouse #1, 24 h urine
[2] = after intravenous ZST316, total dose 1.326 mg, mouse #1, 24 h urine
[3] = after oral ZST152, total dose 1.158 mg, mouse #3, 24 h urine
[4] = after oral ZST316, total dose 1.308 mg, mouse #3, 24 h urine

Compound | % of Dose recovered in urine [1] [%] | Amount Recovered in urine [1] [µg] | % of Dose recovered in urine [2] [%] | Amount Recovered in urine [2] [µg] | % of Dose recovered in urine [3] [%] | Amount Recovered in urine [3] [µg] | % of Dose recovered in urine [4] [%] | Amount Recovered in urine [4] [µg]
COCCNC(=N)N [M1] | 0.039 | 0.55 | 0.017 | 0.23 | 0.088 | 1.02 | 0.21 | 2.74
COCCNC(=N)NCCCCO [M3] | 0.19 | 2.62 |  |  | 4.2 | 49.1 |  | 
COCCNC(=N)NCCC[C@H](N)C(=O)O [M7] | 0.13 | 1.77 | 6.5 | 86.1 | 0.22 | 2.58 | 76 | 991
COCCNC(=N)NCCCC=O [M2] | 9.05 | 128 |  |  | 0.023 | 0.27 |  | 
COCCNC(=N)NCCC[C@H](O)C(=O)NC(C)=O [M9] |  |  | 0.32 | 4.28 |  |  | 5.4 | 71.0

Second part, the molecule after the results:

% of Dose recovered in urine [1] [%] | Amount Recovered in urine [1] [µg] | % of Dose recovered in urine [2] [%] | Amount Recovered in urine [2] [µg] | % of Dose recovered in urine [3] [%] | Amount Recovered in urine [3] [µg] | % of Dose recovered in urine [4] [%] | Amount Recovered in urine [4] [µg] | Compound
6.6 | 93.3 | 0.66 | 8.71 | 7.6 | 87.8 | 8.2 | 108 | COCCNC(=N)NCCCC(=O)O [M4]
0.10 | 1.48 |  |  | 0.014 | 0.16 |  |  | COCCNC(=N)NCCC[C@H](N)C=NO [M6]
 |  | 0.37 | 4.87 |  |  | 4.1 | 53.4 | COCCNC(=N)NCCC[C@H](O)C(=O)O [M8]
